Source: patent US20250296948A1, “SYNTHESIS OF NUCLEOSIDE DERIVATIVES” (Nucana plc, priority 2022, published 2025)

Assays:
[1] = 12 month dry powder stability, HPLC assay; assay type: physicochemical
Source text: (§1) NUC-3373 prepared according to Example 3, above, was packed into a transparent LDPE bag which was then filled with nitrogen and tied with a strip seal. This bag was then placed into another transparent LDPE bag which was also filled with nitrogen. A silica gel packet was placed between the two bags before the outermost bag was tied with a strip seal. These bags were then placed in a triple laminated sun light barrier bag which was sealed with a heat sealer. The bags were kept in a HDPE container. The NUC-3373 was initially assayed by HPLC after manufacture then after 3, 6, 9 and 12 months of storage.

[2] = 6 month dry powder stability, HPLC assay; assay type: physicochemical
Source text: as §1, with “3 and Comparative Example 4” for “3, above,”, “container.” for “container. The NUC-3373 was initially assayed by HPLC after manufacture then after 3, 6, 9 and 12 months of storage.”
(§2) NUC-3373 was initially assayed by HPLC after manufacture (0 months) then after 1 and 2 and/or 3 and 6 months of storage at 2-8° C., 25° C. or 40° C.

[3] = Solution stability, alpha naphthol (0.60 RRT) in DMA:Saline (80:20 v/v); assay type: physicochemical; set-up: 0.60 RRT (Alpha Naphthol): unit not given here; details: for 0.60 RRT (Alpha Naphthol): 400 mg/mL in DMA:Saline (80:20 v/v)
Procedure: Stability data is also provided in Table 4, which compares the levels of alpha naphthol (0.60 RRT) present in solutions of 400 mg/mL NUC-3373, prepared by Example 3 or 4, above, in DMA:Saline (80:20 v/v) at different temperatures measured over set periods of time. The tested solutions are suitable for infusion and injection and the temperatures and times measured are representative of the environments that solutions suitable for infusion and injection would typically be stored in.
In Table 4 the two values provided for each temperature at each time period, separated by “/”, represent different preparations (samples) of that synthesis.

[4] = Solution stability in DMA:Saline (80:20 v/v) by UPLC; assay type: physicochemical; details: 2-8° C.; for Assay / Purity / Total Impurities: DMA:Saline (80:20 v/v) solution, UPLC
Procedure: The inventors have found in further work that DMA:Saline (80:20 v/v) solutions of samples obtained according to the process of the invention show no loss of purity or assay, and alpha naphthol impurity up to 12 months at 2-8° C.

a range of cancer models = details: compared with 5-fluorouracil; cited from earlier work
tumour cells = details: non-clinical studies, compared with 5-FU and capecitabine; cited from earlier work
[5] = dog, compared with 5-FU; cited from earlier work
[6] = 6 month dry powder stability, Alpha Naphthol content by HPLC; assay type: physicochemical
Source text: as §1, with “3 and Comparative Example 4” for “3, above,”, “container.” for “container. The NUC-3373 was initially assayed by HPLC after manufacture then after 3, 6, 9 and 12 months of storage.”
as §2
The Alpha Naphthol content of the same batches was also determined by HPLC. The levels of the alpha naphthol impurity is a key indicator of stability of the tested material.

## C[C@H](NP(=O)(OC[C@H]1O[C@@H](n2cc(F)c(=O)[nH]c2=O)CC1O)Oc1cccc2ccccc12)C(=O)OCc1ccccc1 (stereo partly drawn) [NUC-3373, 5-fluoro-2′-deoxyuridine-5′-O-[1-naphthyl (benzoxy-L-alaninyl)] phosphate]
[1]; 5 ± 3° C., 3rd month
  HPLC assay (% w/w on anhydrous and solvent free basis): 99.9 % w/w
[1]; 5 ± 3° C., 6th month
  HPLC assay (% w/w on anhydrous and solvent free basis): 100.9 % w/w
[1]; 5 ± 3° C., 9th month
  HPLC assay (% w/w on anhydrous and solvent free basis): 101.5 % w/w
[1]; 5 ± 3° C., 12th month
  HPLC assay (% w/w on anhydrous and solvent free basis): 99.4 % w/w
[1]; 5 ± 3° C., Initial
  HPLC assay (% w/w on anhydrous and solvent free basis): 99.6 % w/w
[1]; 25 ± 2° C., 3rd month
  HPLC assay (% w/w on anhydrous and solvent free basis): 99.6 % w/w
[1]; 25 ± 2° C., 6th month
  HPLC assay (% w/w on anhydrous and solvent free basis): 100.7 % w/w
[1]; 25 ± 2° C., 9th month
  HPLC assay (% w/w on anhydrous and solvent free basis): 101.5 % w/w
[1]; 25 ± 2° C., 12th month
  HPLC assay (% w/w on anhydrous and solvent free basis): 99.4 % w/w
[1]; 25 ± 2° C., Initial
  HPLC assay (% w/w on anhydrous and solvent free basis): 99.6 % w/w
[1]; at both 2-8° C. and 15-30° C.
  time chemically stable: at least 12 months
[2]; Tables 2 and 3, prepared according to the process of the invention
  thermal stability compared with other methods of preparation: thermally more stable than those prepared by other methods
[3]; solutions in DMA:Saline (80:20 v/v), particularly at room temperature
  stability of solutions compared with other methods of preparation: more stable than those prepared by other methods
[4]; 3rd month
  Assay: 99%
  Purity: 99.9%
  Total Impurities: 0.07%
[4]; 6th month
  Assay: 101%
  Purity: 99.9%
  Total Impurities: 0.08%
[4]; 12th month
  Assay: 101%
  Purity: 99.9%
  Total Impurities: 0.09%
[4]; Initial
  Assay: 101%
  Purity: 99.9%
  Total Impurities: 0.07%
[4]; DMA:Saline (80:20 v/v) solutions
  time solutions chemically and physically stable: at least 12 months
A range of cancer models
  activity in vitro against a range of cancer models: outstanding and far superior to the results obtained with 5-fluorouracil
Tumour cells
  inhibition of tumour cell growth: much greater inhibition of tumour cell growth
[5]
  tolerability: significantly better tolerated than 5-FU

## C[C@H](NP(=O)(OC[C@H]1O[C@@H](n2cc(F)c(=O)[nH]c2=O)CC1O)Oc1cccc2ccccc12)C(=O)OCc1ccccc1 (stereo partly drawn) [Comparative Example 4, 5-fluoro-2′-deoxyuridine-5′-O-[1-naphthyl (benzoxy-L-alaninyl)] phosphate]
[2]; 2-8 ° C.
  Decrease after 6 months, HPLC assay: None
[2]; 2-8 ° C., 0 months
  HPLC assay (% w/w on anhydrous and solvent free basis): 100 % w/w
[2]; 2-8 ° C., 3 months
  HPLC assay (% w/w on anhydrous and solvent free basis): 100 % w/w
[2]; 2-8 ° C., 6 months
  HPLC assay (% w/w on anhydrous and solvent free basis): 100 % w/w
[2]; 25 ° C.
  Decrease after 6 months, HPLC assay: 0.1 % w/w
[2]; 25 ° C., 0 months
  HPLC assay (% w/w on anhydrous and solvent free basis): 99.7 % w/w
[2]; 25 ° C., 3 months
  HPLC assay (% w/w on anhydrous and solvent free basis): 99.5 % w/w
[2]; 25 ° C., 6 months
  HPLC assay (% w/w on anhydrous and solvent free basis): 99.6 % w/w
[2]; 40 ° C.
  Decrease after 6 months, HPLC assay: 2.0 % w/w
[2]; 40 ° C., 0 months
  HPLC assay (% w/w on anhydrous and solvent free basis): 99.7 % w/w
[2]; 40 ° C., 1 month
  HPLC assay (% w/w on anhydrous and solvent free basis): 99.3 % w/w
[2]; 40 ° C., 2 months
  HPLC assay (% w/w on anhydrous and solvent free basis): 99.0 % w/w
[2]; 40 ° C., 3 months
  HPLC assay (% w/w on anhydrous and solvent free basis): 99.3 % w/w
[2]; 40 ° C., 6 months
  HPLC assay (% w/w on anhydrous and solvent free basis): 97.7 % w/w
[6]; 2-8 ° C.
  Increase after 6 months, Alpha Naphthol by HPLC: None
[6]; 2-8 ° C., 0 months
  Alpha Naphthol by HPLC (% w/w): 0.09 % w/w
[6]; 2-8 ° C., 3 months
  Alpha Naphthol by HPLC (% w/w): 0.10 % w/w
[6]; 2-8 ° C., 6 months
  Alpha Naphthol by HPLC (% w/w): 0.09 % w/w
[6]; 25 ° C.
  Increase after 6 months, Alpha Naphthol by HPLC: 0.1 % w/w
[6]; 25 ° C., 0 months
  Alpha Naphthol by HPLC (% w/w): 0.09 % w/w
[6]; 25 ° C., 3 months
  Alpha Naphthol by HPLC (% w/w): 0.10 % w/w
[6]; 25 ° C., 6 months
  Alpha Naphthol by HPLC (% w/w): 0.10 % w/w
[6]; 40 ° C.
  Increase after 6 months, Alpha Naphthol by HPLC: 1.11 % w/w
[6]; 40 ° C., 0 months
  Alpha Naphthol by HPLC (% w/w): 0.09 % w/w
[6]; 40 ° C., 1 month
  Alpha Naphthol by HPLC (% w/w): 0.18 % w/w
[6]; 40 ° C., 2 months
  Alpha Naphthol by HPLC (% w/w): 0.27 % w/w
[6]; 40 ° C., 3 months
  Alpha Naphthol by HPLC (% w/w): 0.18 % w/w
[6]; 40 ° C., 6 months
  Alpha Naphthol by HPLC (% w/w): 1.2 % w/w
[3]; After 1 month at 2-8° C., first preparation (before "/")
  0.60 RRT (Alpha Naphthol): 0.04/0.04
[3]; After 1 month at 2-8° C., second preparation (after "/")
  0.60 RRT (Alpha Naphthol): 0.04/0.04
[3]; After 1 month at 25 ± 5° C., first preparation (before "/")
  0.60 RRT (Alpha Naphthol): 0.29/0.29
[3]; After 1 month at 25 ± 5° C., second preparation (after "/")
  0.60 RRT (Alpha Naphthol): 0.29/0.29
[3]; After 3 months at 2-8° C., first preparation (before "/")
  0.60 RRT (Alpha Naphthol): 0.06/0.06
[3]; After 3 months at 2-8° C., second preparation (after "/")
  0.60 RRT (Alpha Naphthol): 0.06/0.06
[3]; After 3 months at 25 ± 5° C., first preparation (before "/")
  0.60 RRT (Alpha Naphthol): 0.45
[3]; After 3 months at 25 ± 5° C., second preparation (after "/")
  0.60 RRT (Alpha Naphthol): 0.46
[3]; After 15 days at 2-8° C., first preparation (before "/")
  0.60 RRT (Alpha Naphthol): 0.04/0.04
[3]; After 15 days at 2-8° C., second preparation (after "/")
  0.60 RRT (Alpha Naphthol): 0.04/0.04
[3]; After 15 days at 25 ± 5° C., first preparation (before "/")
  0.60 RRT (Alpha Naphthol): 0.19
[3]; After 15 days at 25 ± 5° C., second preparation (after "/")
  0.60 RRT (Alpha Naphthol): 0.20
[3]; Initial
  0.60 RRT (Alpha Naphthol): 0.02
